Reference: patent US7173034B2, “Respiratory syncytial virus replication inhibitors” (Janssen Pharmaceutica, N.V., priority 1999, dated 2007)

What was measured:
[1] = system: Respiratory Syncytial Virus; test: microbe, parasite or virus in culture; format: cell-based; conditions: for SI (selectivity index, CC50 divided by IC50): CC50 (HeLa cells) / IC50 (Respiratory Syncytial Virus); for IC50: human respiratory syncytial virus, 168 h, Respiratory Syncytial Virus in HeLa cells, seven days after infection, tetrazolium-based colorimetric assay, read-out: IC50 (antiviral activity, protection against cytopathology caused by virus)
Method: (§1) The percent protection against cytopathology caused by viruses (antiviral activity or IC50) achieved by tested compounds and their cytotoxicity (CC50) were both calculated from dose-response curves.
Automated tetrazolium-based colorimetric assays were used for determination of IC50 and CC50 of test compounds. Flat-bottom, 96-well plastic microtiter trays were filled with 180 μl of Eagle's Basal Medium, supplemented with 5% FCS (0% for FLU) and 20 mM Hepes buffer. Subsequently, stock solutions (7.8× final test concentration) of compounds were added in 45 μl volumes to a series of triplicate wells so as to allow simultaneous evaluation of their effects on virus- and mock-infected cells. Five five-fold dilutions were made directly in the microtiter trays using a robot system. Untreated virus controls, and HeLa cell controls were included in each test. Approximately 100 TCID50 of Respiratory Syncytial Virus was added to two of the three rows in a volume of 50 μl. The same volume of medium was added to the third row to measure the cytotoxicity of the compounds at the same concentrations as those used to measure the antiviral activity. After two hours of incubation, a suspension (4×10^5 cells/ml) of HeLa cells were added to all wells in a volume of 50 μl. The cultures were incubated at 37° C. in a 5% CO2 atmosphere. Seven days after infection the cytotoxicity and the antiviral activity was examined spectrophotometrically. To each well of the microtiter tray, 25 μl of a solution of MTT (3-(4,5-dimethylthiazol-2-yl)-2,5-diphenyltetrazolium bromide) was added. The trays were further incubated at 37° C. for 2 hours, after which the medium was removed from each cup. Solubilization of the formazan crystals was achieved by adding 100 μl 2-propanol. Complete dissolution of the formazan crystals were obtained after the trays have been placed on a plate shaker for 10 min. Finally, the absorbances were read in an eight-channel computer-controlled photometer (Multiskan MCC, Flow Laboratories) at two wavelengths (540 and 690 nm). The absorbance measured at 690 nm was automatically subtracted from the absorbance at 540 nm, so as to eliminate the effects of non-specific absorption.

[2] = Cytotoxicity in mock-infected HeLa cells (tetrazolium/MTT colorimetric assay); format: cell-based; conditions: human
Method: as §1
Automated tetrazolium-based colorimetric assays were used for determination of IC50 and CC50 of test compounds. Flat-bottom, 96-well plastic microtiter trays were filled with 180 μl of Eagle's Basal Medium, supplemented with 5% FCS (0% for FLU) and 20 mM Hepes buffer. Subsequently, stock solutions (7.8× final test concentration) of compounds were added in 45 μl volumes to a series of triplicate wells so as to allow simultaneous evaluation of their effects on virus- and mock-infected cells. Five five-fold dilutions were made directly in the microtiter trays using a robot system. Untreated virus controls, and HeLa cell controls were included in each test. Approximately 100 TCID50 of Respiratory Syncytial Virus was added to two of the three rows in a volume of 50 μl. […] Finally, the absorbances were read in an eight-channel computer-controlled photometer (Multiskan MCC, Flow Laboratories) at two wavelengths (540 and 690 nm). The absorbance measured at 690 nm was automatically subtracted from the absorbance at 540 nm, so as to eliminate the effects of non-specific absorption.

## O=CNCCN1CCC(Nc2nc3ccccc3n2Cc2ccccn2)CC1 [Compound 18]
other
  melting point: 146 °C

## CCC(CN)N1CCC(Nc2nc3ccccc3n2Cc2ccccn2)CC1 (centres unmarked) [Compound 23]
other
  melting point: 112 °C

## CC(C)C(N)CN1CCC(Nc2nc3ccccc3n2Cc2ccccn2)CC1 (centres unmarked) [Compound 24]
other
  melting point: 115 °C

## Cc1ccc(OCCO)c(Cn2c(NC3CCN(CCN)CC3)nc3ccccc32)n1 [Compound 27]
[1]
  SI (selectivity index, CC50 divided by IC50): >7943
  IC50: 0.0126 µM
[2]
  CC50 at 7 days: > 100 µM

## CC(CN)N1CCC(Nc2nc3ccccc3n2C(C)c2ccccn2)CC1 (centres unmarked) [Compound 30]
other
  melting point: 85 °C

## NCCCCN1CCC(Nc2nc3ccccc3n2Cc2ccccn2)CC1 [Compound 31]
other
  melting point: 94 °C

## Cc1ccc(O)c(Cn2c(NC3CCN(CCN)CC3)nc3c(C)cccc32)n1 [Compound 357]
[1]
  SI (selectivity index, CC50 divided by IC50): >79
  IC50: 0.00013 µM
[2]; mock-infected HeLa cells, seven days, tetrazolium-based colorimetric assay
  CC50 at 7 days: > 0.01 µM
